Experimental data from ChEMBL document CHEMBL5537145, “Design, synthesis and evaluation of novel UDCA-aminopyrimidine hybrids as ATX inhibitors for the treatment of hepatic and pulmonary fibrosis” (Eur J Med Chem, 2024).
Activity calls are given as the source filed them. The rule behind the calls is not given here.

Columns and labels:
[1] = target: T1, Autotaxin (Homo sapiens, UniProt Q13822); assay: Inhibition of human ATX in using LPC as substrate by fluorescence based microplate reader assay
[2] = test system: LX-2; assay: Anti-hepatic fibrosis activity against TGF-beta1 stimulated human LX2 cells assessed as reduction in Smad2 phosphorylation incubated for 48 hrs by Western blotting analysis; assay type: functional, cell-based; conditions: dose 5-20 µM
[3] = test system: LX-2; assay: Anti-hepatic fibrosis activity against TGF-beta1 stimulated human LX2 cells assessed as reduction in FN protein expression level at 5 to 20 uM incubated for 48 hrs by Western blotting analysis; assay type: functional, cell-based; conditions: dose 5-20 µM
[4] = test system: LX-2; assay: Anti-hepatic fibrosis activity against TGF-beta1 stimulated human LX2 cells assessed as reduction in COL1A1 mRNA expression level at 5 to 20 uM incubated for 48 hrs by quantitative real-time PCR analysis; assay type: functional, cell-based; conditions: dose 5-20 µM
[5] = test system: CCC-HPF-1; assay: Effect on total Smad3 level in TGF-beta1 stimulated human CCC-HPF-1 cells at 5 to 20 uM incubated for 48 hrs by Western blotting analysis; assay type: functional, cell-based; conditions: dose 5-20 µM
[6] = test system: CCC-HPF-1; assay: Anti-pulmonary fibrosis activity against TGF-beta1 stimulated human CCC-HPF-1 cells assessed as reduction in Smad3 phosphorylation incubated for 48 hrs by Western blotting analysis; assay type: functional, cell-based; conditions: dose 5-20 µM
[7] = test system: LX-2; assay: Anti-hepatic fibrosis activity against TGF-beta1 stimulated human LX2 cells assessed as reduction in FN mRNA expression level at 5 to 20 uM incubated for 48 hrs by quantitative real-time PCR analysis; assay type: functional, cell-based; conditions: dose 5-20 µM
[8] = test system: LX-2; assay: Effect on total Smad2 level in TGF-beta1 stimulated human LX2 cells at 5 to 20 uM incubated for 48 hrs by Western blotting analysis; assay type: functional, cell-based; conditions: dose 5-20 µM
[9] = test system: LX-2; assay: Anti-hepatic fibrosis activity against TGF-beta1 stimulated human LX2 cells assessed as reduction in alpha-SMA mRNA expression level at 5 to 20 uM incubated for 48 hrs by quantitative real-time PCR analysis; assay type: functional, cell-based; conditions: dose 5-20 µM
[10] = test system: LX-2; assay: Cytotoxicity against human LX2 cells assessed as reduction in cell viability at 2.5 to 80 uM incubated for 48 hrs by MTT assay; assay type: toxicity, cell-based; conditions: lx-2, 48 h, dose 2.5-80 µM
[11] = test system: LX-2; assay: Effect on total Smad3 level in TGF-beta1 stimulated human LX2 cells at 5 to 20 uM incubated for 48 hrs by Western blotting analysis; assay type: functional, cell-based; conditions: dose 5-20 µM
[12] = test system: CCC-HPF-1; assay: Anti-pulmonary fibrosis activity against TGF-beta1 stimulated human CCC-HPF-1 cells assessed as reduction in COL1A1 protein expression level at 5 to 20 uM incubated for 48 hrs by Western blotting analysis; assay type: functional, cell-based; conditions: dose 5-20 µM
[13] = test system: CCC-HPF-1; assay: Anti-pulmonary fibrosis activity against TGF-beta1 stimulated human CCC-HPF-1 cells assessed as reduction in FN protein expression level at 5 to 20 uM incubated for 48 hrs by Western blotting analysis; assay type: functional, cell-based; conditions: dose 5-20 µM
[14] = test system: CCC-HPF-1; assay: Effect on total Smad2 level in TGF-beta1 stimulated human CCC-HPF-1 cells at 5 to 20 uM incubated for 48 hrs by Western blotting analysis; assay type: functional, cell-based; conditions: dose 5-20 µM
[15] = test system: LX-2; assay: Anti-hepatic fibrosis activity against TGF-beta1 stimulated human LX2 cells assessed as reduction in COL1A1 protein expression level at 5 to 20 uM incubated for 48 hrs by Western blotting analysis; assay type: functional, cell-based; conditions: dose 5-20 µM
[16] = target: T1, Autotaxin; assay: Potency index, ratio of GLPG-1690 IC50 to test compound IC50 for inhibition of human ATX in using LPC as substrate by fluorescence based microplate reader assay
[17] = test system: CCC-HPF-1; assay: Cytotoxicity against human CCC-HPF-1 cells assessed as reduction in cell viability at 2.5 to 80 uM incubated for 48 hrs by MTT assay; assay type: toxicity, cell-based; conditions: ccc-hpf-1, 48 h, dose 2.5-80 µM
[18] = test system: CCC-HPF-1; assay: Anti-pulmonary fibrosis activity against TGF-beta1 stimulated human CCC-HPF-1 cells assessed as reduction in FN mRNA expression level at 5 to 20 uM incubated for 48 hrs by quantitative real-time PCR analysis; assay type: functional, cell-based; conditions: dose 5-20 µM
[19] = test system: CCC-HPF-1; assay: Anti-migratory activity against TGF-beta1 stimulated human CCC-HPF-1 cells at 10 uM incubated for 24 hrs by light microscopic analysis; assay type: functional, cell-based
[20] = test system: LX-2; assay: Anti-hepatic fibrosis activity against TGF-beta1 stimulated human LX2 cells assessed as inhibition of Smad2/3 nuclear translocation at 10 uM incubated for 48 hrs by DAPI staining based immunofluorescence analysis; assay type: functional, cell-based
[21] = test system: CCC-HPF-1; assay: Anti-pulmonary fibrosis activity against TGF-beta1 stimulated human CCC-HPF-1 cells assessed as inhibition of Smad2/3 nuclear translocation at 10 uM incubated for 48 hrs by DAPI staining based immunofluorescence analysis; assay type: functional, cell-based
[22] = test system: LX-2; assay: Anti-hepatic fibrosis activity against TGF-beta1 stimulated human LX2 cells assessed as reduction in alpha-SMA protein expression level at 5 to 20 uM incubated for 48 hrs by Western blotting analysis; assay type: functional, cell-based; conditions: dose 5-20 µM
[23] = test system: CCC-HPF-1; assay: Anti-pulmonary fibrosis activity against TGF-beta1 stimulated human CCC-HPF-1 cells assessed as reduction in alpha-SMA mRNA expression level at 5 to 20 uM incubated for 48 hrs by quantitative real-time PCR analysis; assay type: functional, cell-based; conditions: dose 5-20 µM
[24] = test system: CCC-HPF-1; assay: Anti-pulmonary fibrosis activity against TGF-beta1 stimulated human CCC-HPF-1 cells assessed as reduction in COL1A1 mRNA expression level at 5 to 20 uM incubated for 48 hrs by quantitative real-time PCR analysis; assay type: functional, cell-based; conditions: dose 5-20 µM
[25] = test system: CCC-HPF-1; assay: Anti-pulmonary fibrosis activity against TGF-beta1 stimulated human CCC-HPF-1 cells assessed as reduction in alpha-SMA protein expression level at 5 to 20 uM incubated for 48 hrs by Western blotting analysis; assay type: functional, cell-based; conditions: dose 5-20 µM
[26] = test system: CCC-HPF-1; assay: Anti-pulmonary fibrosis activity against TGF-beta1 stimulated human CCC-HPF-1 cells assessed as reduction in Smad2 phosphorylation incubated for 48 hrs by Western blotting analysis; assay type: functional, cell-based; conditions: dose 5-20 µM
[27] = test system: LX-2; assay: Anti-hepatic fibrosis activity against TGF-beta1 stimulated human LX2 cells assessed as reduction in Smad3 phosphorylation incubated for 48 hrs by Western blotting analysis; assay type: functional, cell-based; conditions: dose 5-20 µM
[28] = test system: LX-2; assay: Anti-migratory activity against TGF-beta1 stimulated human LX2 cells at 10 uM incubated for 24 hrs by light microscopic analysis; assay type: functional, cell-based

## C[C@H](CCC(=O)N1CCc2nc(NCCCc3ccccc3)ncc2C1)[C@H]1CC[C@H]2[C@@H]3[C@@H](O)C[C@@H]4C[C@H](O)CC[C@]4(C)[C@H]3CC[C@]12C
[1]
  IC50: 165 nM

## C[C@H](CCC(=O)N1CCc2nc(NCCc3cccc(Br)c3)ncc2C1)[C@H]1CC[C@H]2[C@@H]3[C@@H](O)C[C@@H]4C[C@H](O)CC[C@]4(C)[C@H]3CC[C@]12C
[1]
  IC50: 27.7 nM

## C[C@H](CCC(=O)N1CCc2nc(NCCc3ccccc3Br)ncc2C1)[C@H]1CC[C@H]2[C@@H]3[C@@H](O)C[C@@H]4C[C@H](O)CC[C@]4(C)[C@H]3CC[C@]12C
[1]
  IC50: 92.5 nM

## C[C@H](CCC(=O)N1CCc2nc(NCCc3ccc(Br)cc3)ncc2C1)[C@H]1CC[C@H]2[C@@H]3[C@@H](O)C[C@@H]4C[C@H](O)CC[C@]4(C)[C@H]3CC[C@]12C
[1]
  IC50: 46.3 nM

## C[C@H](CCC(=O)N1CCc2nc(NCc3ccc(Br)cc3)ncc2C1)[C@H]1CC[C@H]2[C@@H]3[C@@H](O)C[C@@H]4C[C@H](O)CC[C@]4(C)[C@H]3CC[C@]12C
[1]
  IC50: 243 nM

## C[C@H](CCC(=O)N1CCc2nc(NCCc3ccccc3Cl)ncc2C1)[C@H]1CC[C@H]2[C@@H]3[C@@H](O)C[C@@H]4C[C@H](O)CC[C@]4(C)[C@H]3CC[C@]12C
[1]
  IC50: 102 nM

## C[C@H](CCC(=O)N1CCc2nc(NCCc3ccccc3)ncc2C1)[C@H]1CC[C@H]2[C@@H]3[C@@H](O)C[C@@H]4C[C@H](O)CC[C@]4(C)[C@H]3CC[C@]12C
[1]
  IC50: 57.8 nM

## C[C@H](CCC(=O)N1CCc2nc(N3CCC(c4ccccc4)CC3)ncc2C1)[C@H]1CC[C@H]2[C@@H]3[C@@H](O)C[C@@H]4C[C@H](O)CC[C@]4(C)[C@H]3CC[C@]12C
[1]
  IC50: 43.9 nM

## C[C@H](CCC(=O)N1CCc2nc(NC3Cc4ccccc4C3)ncc2C1)[C@H]1CC[C@H]2[C@@H]3[C@@H](O)C[C@@H]4C[C@H](O)CC[C@]4(C)[C@H]3CC[C@]12C
[2]
  Activity: Dose-Dependent Effect
[3]
  Activity: Active
[4]
  Activity: Active
[5]
  Activity: inactive
[6]
  Activity: Dose-Dependent Effect
[7]
  Activity: Active
[8]
  Activity: inactive
[9]
  Activity: Active
[10]
  Activity: Non-Toxic
[11]
  Activity: inactive
[12]
  Activity: Active
[13]
  Activity: Active
[14]
  Activity: inactive
[15]
  Activity: Active
[16]
  Ratio IC50: 9
[17]
  Activity: Non-Toxic
[18]
  Activity: Active
[19]
  Activity: Active
[20]
  Activity: Active
[21]
  Activity: Active
[22]
  Activity: Active
[23]
  Activity: Active
[24]
  Activity: Active
[1]
  IC50: 7.62 nM
[25]
  Activity: Active
[26]
  Activity: Dose-Dependent Effect
[27]
  Activity: Dose-Dependent Effect
[28]
  Activity: Active

## Cc1ccc(CCNc2ncc3c(n2)CCN(C(=O)CC[C@@H](C)[C@H]2CC[C@H]4[C@@H]5[C@@H](O)C[C@@H]6C[C@H](O)CC[C@]6(C)[C@H]5CC[C@]24C)C3)cc1
[1]
  IC50: 168 nM

## C[C@H](CCC(=O)N1CCc2nc(NCCc3ccc(F)cc3)ncc2C1)[C@H]1CC[C@H]2[C@@H]3[C@@H](O)C[C@@H]4C[C@H](O)CC[C@]4(C)[C@H]3CC[C@]12C
[1]
  IC50: 91.7 nM
